Measured values published in the supplement of paper PMC13380429.

Key:
Conditions in all cases: 72 h
[1] = test system: Calu-3; experiment: cell viability relative to DMSO; higher = less toxic
[2] = test system: Vero E6; experiment: as above
[3] = test system: U2OS; experiment: as above
[4] = test system: Caco-2; experiment: as above
[5] = test system: HepG2; experiment: as above
[6] = test system: Calu-3; experiment: drug sensitivity score (DSS) for viability; higher = more toxic; extreme values may be limits of the assay
[7] = test system: Vero E6; experiment: as above
[8] = test system: U2OS; experiment: as above
[9] = test system: Caco-2; experiment: as above
[10] = test system: HepG2; experiment: as above
[11] = test system: Calu-3; experiment: relative viability EC50 (midpoint between 100% and the lowest measured viability); higher = less toxic
[12] = test system: Vero E6; experiment: as above
[13] = test system: U2OS; experiment: as above
[14] = test system: HepG2; experiment: as above

SMILES	cell viability ([1]; 1 nM) [%]	cell viability ([1]; 10 nM) [%]	cell viability ([1]; 100 nM) [%]	cell viability ([1]; 1000 nM) [%]	cell viability ([1]; 10000 nM) [%]	cell viability ([2]; 1 nM) [%]	cell viability ([2]; 10 nM) [%]	cell viability ([2]; 100 nM) [%]	cell viability ([2]; 1000 nM) [%]	cell viability ([2]; 10000 nM) [%]	cell viability ([3]; 1 nM) [%]	cell viability ([3]; 10 nM) [%]	cell viability ([3]; 100 nM) [%]	cell viability ([3]; 1000 nM) [%]	cell viability ([3]; 10000 nM) [%]	cell viability ([4]; 1 nM) [%]	cell viability ([4]; 10 nM) [%]	cell viability ([4]; 100 nM) [%]	cell viability ([4]; 1000 nM) [%]	cell viability ([4]; 10000 nM) [%]	cell viability ([5]; 1 nM) [%]	cell viability ([5]; 10 nM) [%]	cell viability ([5]; 100 nM) [%]	cell viability ([5]; 1000 nM) [%]	cell viability ([5]; 10000 nM) [%]	drug sensitivity score [6]	drug sensitivity score [7]	drug sensitivity score [8]	drug sensitivity score [9]	drug sensitivity score [10]	relative viability EC50 [11] [nM]	relative viability EC50 [12] [nM]	relative viability EC50 [13] [nM]	relative viability EC50 [14] [nM]
CN1CCN(c2ccc(Nc3ncc4cc(C#N)c(=O)n(C5CCCC5)c4n3)cc2)CC1	105	103	98.9	87.9	111	105	107	107	99.1	58.1	100	98	102	98.3	70	98	93.9	101	92.3	74.9	99.8	99.7	102	88.8	52.9	0	2.2	1.5	2	4.2	> 10000	–	–	–
FC(F)(F)c1cc(NC(=S)Nc2ccc(Br)cc2-c2nnn[nH]2)cc(C(F)(F)F)c1	98.8	102	101	103	99.3	95.8	102	93.3	102	83	99.9	104	97.7	97.6	97.5	96.6	106	95.3	88.7	57.9	99.3	92.7	98.7	90.4	85.6	0	0.3	0	3.7	0.2	> 10000	> 10000	> 10000	> 10000
O=C(c1cn(Cc2cncn2Cc2ccc(Br)cc2)cc1-c1cccc2ccccc12)N1CCOCC1	104	96.7	98.6	68.1	72.1	99.8	97.7	95.4	88.1	64.5	97.3	99.4	90.5	80.3	39.9	99.1	96.1	94.4	78.1	63.5	107	90.6	98.3	57.1	16.3	5.6	2.9	5.5	4.3	9.8	–	–	1490	972
N#C/C(=C\c1ccc(O)c(O)c1)C(=O)NCCCc1ccccc1 [AG-555]	112	95.2	101	105	88.4	102	102	103	103	79.7	99	99.5	103	99.1	88.7	96.7	100	113	84.1	68.1	95.5	89.9	95.8	95.4	74.7	0	0.5	0	3.4	1.7	> 10000	> 10000	> 10000	–
c1cc(Nc2cc(C3CC3)n[nH]2)nc(Nc2ccc3[nH]cnc3c2)n1 [APY-29]	98.1	100	102	37.8	66.9	101	94.1	93.5	86.9	13.8	95.2	102	100	55.4	5.4	88.9	101	94.7	94.8	72.5	96.4	94.2	93.1	14.2	5.2	11.2	7	10.9	1.9	16.6	337	1970	1050	339
Clc1ccc(C2(c3ccc(-c4cn[nH]c4)cc3)CCNCC2)cc1 [AT7867]	99.7	98.7	110	132	79.5	100	97	97.5	84.9	39.8	103	95.1	94.9	90.3	34.8	103	93.3	105	98.2	73.9	102	101	97.6	84.9	54.2	0.2	5.6	5.2	1.3	4.4	> 10000	1550	2000	–
